This passage reports inhibition in vivo results from patent US5017596A, “Arylpyrazolylcarbinol compounds with analgesic activity” (Laboratorios del Dr. Esteve, S.A., priority 1987, dated 1991).

Holding throughout (type): in vivo, Swiss male mice
Experiment [1] has as its system contortions induced by acetylcholine bromide in mice. Description: Analgesic activity: inhibition of the contortions induced by acetylcholine bromide in mice (Collier's method). As to conditions: Mus musculus, po; 160 mg/kg, administered orally; acetylcholine bromide 7.2 mg/kg i.p.; mean of the values at 40 and 120 minutes; read-out: % inhibition of contortions. The protocol: (§1) Swiss male mice weighing 17-22 grams are used. Groups containing a minimum of 4 animals are used.
Contortions are induced by the intraperitoneal injection of acetylcholine bromide (7.2 mg/kg, dissolved in physiological serum, a volume of 10 ml/kg of weight being administered) at the start of the experiment and the number of contortions is counted for 5 minutes, this being the reference number for each animal (mice with fewer than 2 contortions are rejected). Immediately afterwards, the test products are administered orally, at a dose of 160 mg/kg, in the form of a suspension or solution in gum arabic at a concentration of 5% (w/v) in distilled water. 40 and 120 minutes after the treatment, acetylcholine bromide is administered again, the contortions are noted and the readings at 40 and 120 minutes are evaluated, taking the contortions of the initial reading as the reference.

The test system of experiment [2] is contortions induced by phenylbenzoquinone in mice. Description: Analgesic activity: inhibition of the contortions induced by phenylbenzoquinone in mice (Siegmund's method). As to conditions: Mus musculus, po; 160 mg/kg, administered orally 60 minutes before phenylbenzoquinone i.p.; contortions counted for 15 minutes; read-out: % inhibition of contortions. The method, then: Analgesic activity: Inhibition of the contortions induced by phenylbenzoquinone in mice--Siegmund's method (E. Siegmund, R. Cadmus and G. Lu, Proc Soc. Exp. Biol. Med., 95, 729 (1957))
as §1
Contortions are induced by the intraperitoneal injection of phenyl-p-benzoquinone (25 ml/kg of a 0.02% solution in a solution of ethanol at a concentration of 5% (v/v) in distilled water, with Evans blue in a proportion of 0.1% (w/v)) and are counted for 15 minutes as from the time of injection. Each product is suspended or dissolved in gum arabic at a concentration of 5% (w/v) in distilled water and is administered orally, at a dose of 160 mg/kg, 60 minutes before the injection of phenylbenzoquinone. The inhibition of contortions due to each product is determined, taking as the reference the contortions in a group of control animals to which only the vehicle is administered orally 60 minutes before the phenylbenzoquinone.

Experiment [3] deals with contortions induced by acetic acid in mice. The experiment is described as follows: Analgesic activity: inhibition of the contortions induced by acetic acid in mice (Koster's method). As to conditions: Mus musculus, po; 160 mg/kg, administered orally 60 minutes before acetic acid i.p.; contortions counted for 15 minutes; read-out: % inhibition of contortions. The method, then:
Swiss male mice weighing 17-22 grams are used. Groups containing a minimum of 4 animals for each dose are used.
Each product is suspended or dissolved in gum arabic at a concentration of 5% (w/v) in distilled water and is administered orally, at a dose of 160 mg/kg, 60 minutes before the injection of acetic acid.

Consider `CC(=O)Nc1ccc(O)cc1` [Paracetamol, reference compound], for which the inhibition in vivo at 160 mg/kg in experiment [1] was determined as 72.5%; in experiment [2], 47.5%; in experiment [3], 20%.
For `CN1CCOC(c2ccccc2)c2ccccc2C1` (stereo not drawn) [Nefopam, reference compound], in that order: 100%, 97.5% and 98%.
